Assays:
MMP9 = MMP9 expression by western blotting and qRT-PCR; format: cell-based, human; conditions: KLF5^K369Q-expressing cells (PC-3-KQ)
Description: Total RNA was extracted from cells using the Eastep Super total RNA extraction kit (Cat #: LS1040, Promega, Shanghai, China) and quantified using the NanoDrop One (Thermo Fisher Scientific, Madison, USA). Single-strand cDNA was synthesized from 1 μg of total RNA using the HiScript III All-in-one RT SuperMix kit (Cat #: R333-01, Vazyme, Nanjing, China). For qRT-PCR, the cDNA template was mixed with the SYBR Green reagent in enzyme-free water, and the Qtower3 touch system (Analytik Jena, Jena, Germany) was used for PCR with the following program: initial denaturation at 95°C for 5 min, 40 cycles of 95°C for 30 s, 60°C for 30 s, and 72 °C for 30 s, and a final melting for 15 s. GAPDH was used as an internal control. […].
Cells in 6-well plates were washed with cold PBS and collected in a lysis buffer containing phosphatase and protease inhibitors (Cat #: P1045, Beyotime) to extract proteins. After centrifugation for 10 min at 4°C in a refrigerated centrifuge, the supernatant was collected and mixed with the 4× loading buffer, boiled in a metal heat bath at 100°C for 10 min, and then subjected to 10% SDS-PAGE. Proteins were transferred onto an activated PVDF membrane (0.45 μm pore-size, Cat #: IPVH00010, Millipore, Carrigtwohill, Ireland). […]

MYBL2 promoter = experiment: ChIP assay of KLF5 binding to the MYBL2 promoter; format: cell-based, human; conditions: PC-3-KQ cells treated for 48 h
Description: ChIP assay was performed using the SimpleChIP Enzymatic Chromatin IP kit (Cat #: 9003s, Cell Signaling Technology) according to the manufacturer's instructions. Briefly, cells were treated with 1% formaldehyde for 10 min for cross-linking, quenched with glycine for 5 min at room temperature, collected, and digested with micrococcal nuclease for 20 min at 37°C. After stopping the reaction by adding EDTA, DNA was fragmented by sonication, and the extracts were incubated with KLF5 antibody (Cat #: 21017-1-AP, Proteintech) or IgG (Cat #: 2729P, Cell Signaling Technology). […]

PC-3-KR-Luc cells = experiment: Bone metastasis assay, prevention mode; format: in vivo, Balb/c nude mice; conditions: 100 mg/kg intragastric every day
Text: (§1) Male Balb/c nude mice at 3-4 weeks old were purchased from Charles River (Beijing, China). Upon arrival at the Animal Center of the Southern University of Science and Technology (SUSTech), mice were quarantined for one week before use. All mice were maintained and handled following the National Institutes of Health guide for the Care and Use of Laboratory Animals. To measure if NTZ inhibits Ac-KLF5-induced bone metastasis, we used both prevention and therapy modes. […] Then the mice were randomly divided into vehicle and NTZ groups (six mice in each group) and received treatment at day 0. The tumor growth and body weight were determined every week. After 5 weeks of treatment, all mice were sacrificed and bone tissues and major organs were resected for hematoxylin and eosin (H&E) staining. The selection of 5 weeks for investigation is based on the pilot experiment, in which clear bone metastases formed at 5 weeks after injection but no tumors were detected in other organs, including the brain, liver, lung, spleen, heart, prostate, seminal vesicle, small intestine, and testes (data not shown). Tumor growth in the bone was determined once a week by in vivo BL imaging using the Living Image Software 4.4 (IVIS Spectrum, PerkinElmer Health Sciences, Massachusetts, USA). Ten minutes after intraperitoneal injection of D-luciferin sodium salt (15 mg/mL, 10 μL/g BW) (GM-040611, Genomeditech, Shanghai, China), bioluminescence images were acquired with the following conditions: open emission filter, exposure time = 60 s, binning = medium: 8, field of view = 12.9 ×12.9 cm, and f/stop = 1. Images were then analyzed using the Living Image 4.4 software (PerkinElmer). At the end of treatment, bioluminescence intensities were measured by photon flux of the region of interest (ROI) and compared between the vehicle and NTZ treatment groups. […] CC0113, […] Biotechnology, Beijing, China) was used as vehicle control, and NTZ was solved in CMC. NTZ was delivered into mice via intragastric administration (100 mg/kg BW) every day. Femurs were decalcified in ethylenediaminetetraacetic (EDTA) decalcification solution (Cat #: R20403-5L, OKA, Beijing, China) for 14-21 days. After decalcification, bone tissues were dehydrated in gradient ethanol from 70 to 95%, soaked in n-butanol for 6 h, and then embedded in paraffin. Tissue blocks were cut into 4 μm sections. After baking in an oven at 63°C for 1.5 h, tissue slides were deparaffinized with xylene, hydrated with gradient ethanol, and then stained with H&E (Cat #: BA4025, BaSO, Zhuhai, China). Slides were then mounted for analysis with neutral resins (Cat #: 25608-33-7, Sigma-Aldrich, MO, USA).

PC-3-KQ-Luc cells = experiment: Bone metastasis assay, prevention mode; format: in vivo, Balb/c nude mice; conditions: 100 mg/kg intragastric every day
Text: as §1

KLF5^K369R protein = biological target: T1, KLF5^K369R protein (Homo sapiens, UniProt Q13887, K369R); experiment: Fluorescence titration (quenching) of KLF5 protein; conditions: read-out: binding constant Kd
T1 construct: made in house; host or cells: E. coli BL21 DE3
Description: (§2) Wild-type or mutant KLF5 protein at 1 μM in 2 mL PBS was measured for fluorescence spectrum using a fluorescence spectrometer (HORIBA, Kyoto, Japan), and the fluorescence spectra were obtained for wavelengths of 300–500 nm. NTZ with various concentration ranges and various increments were used in the analysis, including 0.1–1 μM with an increment of 0.1 μM, 1–5 μM with an increment of 0.5 μM, 5–10 μM with an increment of 1 μM, and 10–30 μM with an increment of 5 μM. The incubation with NTZ was for 5 s at room temperature. Data were processed and fitted to obtain the binding affinities using the Origin software (OriginLab, Northampton, MA, USA), and Kd values were determined by the responses at […] wavelength.

KLF5^K369Q protein = biological target: T2, KLF5^K369Q protein (Homo sapiens, UniProt Q13887, K369Q); experiment: Fluorescence titration (quenching) of KLF5 protein; conditions: read-out: binding constant Kd
T2 construct: made in house; host or cells: E. coli BL21 DE3
Description: as §2

T1 sequence (Q13887 whole entry K369R): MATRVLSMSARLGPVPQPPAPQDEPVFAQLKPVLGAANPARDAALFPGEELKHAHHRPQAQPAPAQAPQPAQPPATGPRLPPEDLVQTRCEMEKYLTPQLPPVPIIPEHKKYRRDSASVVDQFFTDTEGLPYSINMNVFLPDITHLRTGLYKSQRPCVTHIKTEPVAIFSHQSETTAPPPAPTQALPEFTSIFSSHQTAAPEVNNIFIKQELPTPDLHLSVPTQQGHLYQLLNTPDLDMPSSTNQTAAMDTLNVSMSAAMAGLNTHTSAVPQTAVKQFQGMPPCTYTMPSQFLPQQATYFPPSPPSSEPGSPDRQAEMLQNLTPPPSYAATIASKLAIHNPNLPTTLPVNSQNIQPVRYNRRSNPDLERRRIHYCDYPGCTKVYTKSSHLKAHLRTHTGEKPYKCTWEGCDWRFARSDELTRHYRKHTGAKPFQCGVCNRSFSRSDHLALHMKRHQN
T2 sequence (Q13887 whole entry K369Q): as the sequence (Q13887 whole entry K369R) above, with R369Q counted along it

Compound: CC(=O)Oc1ccccc1C(=O)Nc1ncc([N+](=O)[O-])s1 [Nitazoxanide]
- MMP9 expression (protein and mRNA) (MMP9): decreased MMP9 expression in a dose-dependent manner
- KLF5^K369Q-bound DNA of MYBL2 promoter (-1242 to -1251) (MYBL2 promoter): significantly decreased KLF5^K369Q-bound DNA
- tumor cell area in bone sections (H&E) (PC-3-KR-Luc cells): not significantly affected
- bioluminescence intensity (PC-3-KR-Luc cells; day 35): did not have a significant effect
- tumor cell area in bone sections (H&E) (PC-3-KQ-Luc cells): significantly decreased tumor cell area
- bone metastasis, bioluminescence signals (PC-3-KQ-Luc cells; day 35): dramatically reduced bone metastasis
- Kd (KLF5^K369R protein): 7.3 µM
- Kd (KLF5^K369Q protein): 5.4 µM

Reference: paper PMC9945734 (BMC Medicine, 2023)
